Assay results from patent EP0344995A2, “Method for inhibiting loss of cognitive functions employing a calcium channel blocker alone or in combination with an ace inhibitor” (E.R. SQUIBB & SONS, INC., priority 1988, dated 1989).

Key:
[1] = test system: Adult male Sprauge-Dawley rats; experiment: Extinction of conditioned avoidance response (CAE) in a shuttle box; type: in vivo; conditions: 10 mg/kg and 30 mg/kg i.p. on the 2 days prior to testing and 1 hour before it, extinction tested during 14 days vs saline control
Experimental: Adult male Sprauge-Dawley rats (Charles River, Wilmington, MA), age 25 weeks and weighing 350-400 g, are separately housed in stainless steel cages with continuous access to food and water, a 12-hour light-dark cycle, and constant room temperature of 22° to 24 C. All testing took place approximately 6 hours into the dark component of the light-dark cycle and was conducted in a dimly lighted soundproof room using a standard shuttle box device ([…] Valley Electronics #146-04), a plexiglass chamber (50 x 20 x 20 cm) divided by a center barrier 7 cm in height. The conditioned stimulus consisted of a 10-second tone provided by a Sonlert mounted in the midpoint of the ceiling of the chamber. Floor current of 0.8 mA was delivered by a constant current shocker-scrambler ([…] Valley Electronics #133-33). The day before the initiation of training each animal was allowed to explore the experimental chamber for 10 minutes without any tone or shock. Training was conducted for 15 days following the day of experimental chamber exploration. Each animal received 20 trials per day on a 30-second variable interval schedule. No drug treatment was administered during the training period. Shock could be avoided by shuttling from one side of the center barrier to the other during the 10-second tone period. […] Animals which consistently remained on the center barrier were removed from the study. Automatic counters recorded the number of avoidance responses, escapes, and intertrial crossings, while a running time meter recorded the total shock duration for each animal. Animals not meeting the admittance criterion of correct avoidance rsponding on at least 85% of the trials for 4 out of the last 5 days of training were removed from the study. A total of 99 rats reaching the admittance criterion were tested for extinction of conditioned avoidance response (CAE) during 14 days. […] All solutions were prepared fresh and administered i.p. ([…]) on the 2 days prior to testing and then 1 hour before it. […] The tone was simply discontinued and the testing proceeded. Two-way analysis of variance of the CAE data yielded an overall significant difference in the rate of shuttle extinction between treatment groups.

SMILES	protective effects on memory of previously learned tasks (rate of shuttle extinction) [1]	further results
C[C@@H](CS)C(=O)N1CCC[C@H]1C(=O)O [epicaptopril]	do not have protective effects against loss of memory of previously learned tasks	
COC(=O)C1=CCCN(C)C1 [arecoline]		basal learning (speed of habituation) (Male albino (BKW) mice; mouse, in vivo): the time course of the basic 'learning' or habituation was unaffected
C[C@H](CSC(=O)c1ccccc1)C(=O)N1C[C@@H](Sc2ccccc2)C[C@H]1C(=O)O [zofenopril]	possess protective effects on memory of previously learned tasks	
C[C@H](CS)C(=O)N1CCC[C@H]1C(=O)O [captopril]	possess protective effects on memory of previously learned tasks	
CN1[C@@H]2C[C@@H](OC(=O)[C@H](CO)c3ccccc3)C[C@H]1[C@@H]1O[C@@H]12 [scopolamine]		influence on habituation of the challenge agent, daily challenge (Male albino (BKW) mice; mouse, in vivo): The habituation was impaired throughout the time of scopolamine challenge; autonomic disturbance (Male albino (BKW) mice; mouse, in vivo, ip, 0.25 mg/kg): did not cause autonomic disturbance; effect on vision (Male albino (BKW) mice; mouse, in vivo, ip, 0.25 mg/kg): lack of effect on vision
COc1ccc([C@@H]2Sc3ccccc3N(CCN(C)C)C(=O)[C@@H]2OC(C)=O)cc1 [diltiazem]	possess protective effects on memory of previously learned tasks	antagonism of impairment in habituation caused by acute challenge with scopolamine (Male albino (BKW) mice; mice, scopolamine 0.25 mg/kg i.p. acute challenge (days 6 and 10 for diltiazem), arecoline 50 mg/kg/day i.p. infusion, hydergine 0.1 mg/kg p.o. daily, listed as Diltiazem): found to antagonize the impairment in habituation performance
C[C@](N)(Cc1ccc(O)c(O)c1)C(=O)O [methyldopa]	do not have protective effects against loss of memory of previously learned tasks	
